“Also recorded” adds a separate entry of the source.
Columns and labels:
[1] = system: human periodontal ligament (HPDL) cells; assay: ALP inducing activity of HPDL cells on cell culture system; type: cell-based; conditions: for ALP inducing activity of HPDL cells (amelogenins and peptides based on 6 kDa amelogenin): purified porcine amelogenins and synthetic peptides; for ALP activity of HPDL cells (porcine sheath proteins and synthetic peptides): 50 μg/ml protein or peptide, TGF-β1 50 ng/ml, BMP-2 500 ng/ml, 10 nM 1α-25dihydroxy-Vitamin D3
Description: Human periodontal ligament (HPDL) cells were obtained according to the method of Somerman et al., (1988) from healthy premolars which were extracted from the patients for orthodontic reasons. The cells were precultured for 4-6 passages with a-MEM medium to establish the primary cell line. The cells were maintained in the alpha modification of Eagle's medium (α-MEM; Life Technologies, Grand Island, N.Y., USA) containing 10% fetal bovine serum (FBS; Asahi Technoglass, Chiba, Japan) and 1% antibiotics (100 U/ml of Penicillin-G and 100 μg/ml of Streptomycin sulfate; Gibco BRL, Grand Island, N.Y., USA) at 37° C. in a humidified 5% CO2 atmosphere. The ST2 cells (Riken Cell Bank, Tsukuba, Japan), an osteoblast-like mouse bone marrow stromal cell line, were cultured under the same conditions.
HPDL cells were distributed in 96-well plates at a density of approximately 5×10^5 cells per a well and incubated for 24 h. The growth medium was then changed to contain 10 nM of 1α-25dihydroxy-Vitamin D3 (CALBIOCHEM, La Jolla, Calif.) and 50 μg/ml (final concentration) of fractionated enamel protein samples or synthesized peptides dissolved in ultrapure water. After 96 additional hours of incubation, the cells were washed once with PBS, and ALP activity was determined after a 10 min incubation at 37° C. in 10 mM p-nitrophenylphosphate (substrate) in 100 mM 2-amino-2-methyl-1,3-propanediol-HCl buffer (pH 10.0) containing 5 mM MgCl2. After adding 0.2 M NaOH, which stopped the reaction, the absorbance at 405 nm was read on a plate reader.
HPDL cells of approximately 5×10^5 cells per well were distributed in 96-well plates and incubated for 24 h. The growth medium was then changed to contain 10 nM of 1α-25dihydroxy-Vitamin D3 and 50 μg/ml (final concentration) of purified sheath protein or synthesized peptide. After 96 additional hours of incubation, ALP activity was determined using p-nitrophenylphosphate as a substrate.
The bioactivities of these synthetic peptides were tested their cytodifferentiation activity of HPDL cells and ST2 cells by determination of increasing ALP inducing activity on cell culture system. When these peptides applied in cell culture system, the concentration of their peptides was employed around 1 ng/ml. In the case of TGF-1, the concentration was 10 ng/ml.
Normal human periodontal ligament fibroblasts were maintained in an α-minimal essential medium (α-MEM) containing 10% fetal bovine serum, either with or without 10 nM 1α-25dihydroxy-vitamin D3 and 1% antibiotics (100 U/mL of penicillin G and 100 μg/mL of streptomycin sulfate) at 37° C. in a humidified atmosphere of air containing 5% CO2. Another cell line, ST2 cells, was obtained from an osteoblast-like mouse bone marrow stromal cell line. These cells were cultured in the same conditions as those described above.
The ALP inducing activities of synthetic peptides using the cell culture of HPDL cells and ST2 cells were examined. The HPDL cells were distributed in 96-well plates at a density of approximately 5×10^5 cells per well and incubated for 24 h. The medium was then changed to α-MEM containing 10 nM of 1α-25dihydroxy-vitamin D3 and either synthetic peptides or growth factors dissolved in ultra-pure water. After 96 h of incubation, the cells were washed once with phosphate-buffered saline, and 10 mM ρ-nitrophenylphosphate in 100 mM 2-amino-2-methel-1,3-propanediol-HCl buffer (pH 10.0) containing 5 mM MgCl2 was added. The ALP activity was determined after 10 min incubation at 37° C. and the absorbance at 405 nm was read using a plate reader, after adding 0.2 M NaOH to stop the reaction. […] When the synthetic peptides were applied in the cell culture system, their final concentrations were 25 or 50 μg/mL. A TGF-β1 receptor inhibitor (SB431542, 10 μM) was applied to the HPDL cell culture system to examine their influence relative to the ALP inducing activity of the synthetic peptides.

[2] = system: buccal dehiscence type bone defects created along the roots of the canine mandibular premolars; assay: Cementum regeneration (CR) activity, eight-week histological analysis on buccal dehiscence model of dogs; type: in vivo, beagle dogs; conditions: for CR (cementum regeneration) activity: histological analysis eight weeks after application, buccal dehiscence model of dogs
Description: Approximately 2-year-old male beagle dogs (approximate 15 kg) were used to detect the CR activities after the applications of several enamel protein samples. They had intact dentition and a healthy periodontium. The surgical preparation of buccal dehiscence type bone defects was carried out according to the modified method of Hammarström (1997) under general anesthesia induced and maintained by an endotracheal tube with 1.5-2.0% of halothane (Takeda Yakuhin Co. LTD, Osaka, Japan) in 100% oxygen, after premedicated with intramuscular injection of the mixture of Ketamine HCl (9.8 mg/kg: Sankyo Co. LTD, Tokyo, Japan) and Xylazine HCl (0.7 mg/kg: Bayer Co. LTD, Tokyo, Japan).
Contralateral buccal mucoperiosteal flaps were raised after an intracrevicular incision extending from the first mandibular premolar to the first mandibular molar. After the removing the buccal alveolar bone plate covering the mesial root of the second premolars, the exposed periodontal ligament and cementum of these areas were completely removed by means of a dental bur. At the apical end of the defect, a notch was created to identify the apical extension of the defect, when histological analyses. The distance between the cervical margin and the apical end of the defect was standardized at about 5 mm. The exposed root dentin surfaces were conditioned for 2 min with cotton pellets soaked in a 19% EDTA solution, and then carefully rinsed with sterile saline. Then 50 μg of each enamel protein sample in 100 μl of cold sterile distilled water was applied over the entire buccal surface area of the exposed roots. Finally, the mucoperiosteal flaps were repositioned to their level prior to surgery and sutured. Distilled water was used as a negative control and EMDOGAIN® (BIORA AB, Malmö, Sweden) served as a positive control.
After 8 weeks the dogs were terminated by anesthetization with sodium pentobarbital. Their heads were fixed by perfusion with 0.1 M sodium cacodylate buffer (pH 7.4) containing 4% paraformaldehyde and 1% glutaraldehyde. Tissue blocks, which included teeth, bone, and tissue were dissected and demineralized in 10% formic acid containing 0.06 M sodium citrate and 0.1 M citric acid. All specimens were dehydrated using a graded series of alcohols and then embedded in paraffin. Serial sections (5 μm thick) were made and stained with hematoxylin/eosin for examination by light microscopy.
The length and thickness of cementums regenerated after application of fractionated and purified enamel protein samples and EMD were measured on the computer monitor of histological results. The length of the regenerated cementum was straight distance between the apical end of the defect and coronal extention of the new cementum, as well as to the crest of the new alveolar bone. Also, the thickness of cementum was measured at coronal end, apical end and between them.
CR promoting activity of enamel proteins obtained at each extracted and purified step were examined by eight-week histological analysis of buccal dehiscence type bone defects created along the roots of canine mandible (FIG. 1).

Q: With “6 kDa amelogenin: derived from N-terminal side of 20 kDa amelogenin (MPLPPHPGHPGYINFSYEVLTPLKWYQNMIRHPYTSYGYEPMGGW; porcine 6 kDa amelogenin; listed as Sus scrofa)” as the molecule, how does the “ALP inducing activity of HPDL cells (amelogenins and peptides based on 6 kDa amelogenin)” value [1] read?
A: activity like TGF-β1; also recorded: strongest ALP inducing activity of HPDL cells

Q: With `C=C1/C(=C\C=C2/CCC[C@]3(C)[C@@H]([C@H](C)CCCC(C)(C)O)CC[C@@H]23)C[C@@H](O)C[C@@H]1O` [1α-25dihydroxy-vitamin D3, reference compound] as the molecule, how does the “levels of ALP activity of HPDL cells by addition of 1α-25dihydroxy-vitamin D3” value ([1]; 10 nM, with application of ESP synthetic peptides or TGF-β1) read?
A: enhanced and stabilized

Q: With `NC(=O)c1ccc(-c2nc(-c3ccc4c(c3)OCO4)c(-c3ccccn3)[nH]2)cc1` [SB431542, reference compound] as the molecule, how does the “ALP inducing activity of HPDL cells when adding TGF-β1 receptor inhibitor SB431542” value ([1]; 10 μM SB431542, 10 nM 1α-25dihydroxy-vitamin D3) read?
A: significantly inhibited the activity of TGF-β1

Q: Which “concentration at which the peptide promotes the bioactivity (ALP inducing activity of HPDL cells), high concentration” value ([1]; cell culture system) does the source give for “A-1-1: shorter peptide synthesized based on the sequence of A-1 (MPLPPH; 6 aa from 1 to 6 in sequence 9, 14, 33 and 34; listed as Homo sapiens)” here?
A: 1 µg/mL

Q: And the “ALP inducing activity of HPDL cells (amelogenins and peptides based on 6 kDa amelogenin)” value [1]?
A: promote ALP inducing activity

Q: And the “ALP inducing activity of HPDL cells (amelogenins and peptides based on 6 kDa amelogenin)” value ([1]; listed as SEQ ID NO: 6)?
A: had ALP inducing activity

Q: “A-1-2: shorter peptide synthesized based on the sequence of A-1 (PGHPGY; 6 aa from 7 to 12 in sequence 9, 14, 33 and 34; listed as Homo sapiens)” was tested. Which “concentration at which the peptide promotes the bioactivity (ALP inducing activity of HPDL cells), low concentration” value ([1]; cell culture system) did it give?
A: 10 ng/mL

Q: And the “ALP inducing activity of HPDL cells (amelogenins and peptides based on 6 kDa amelogenin)” value [1]?
A: promote ALP inducing activity

Q: “A-1: N-terminal side peptide synthesized based on the sequence of 6 kDa amelogenin (MPLPPHPGHPGYINF; 15 aa from 1 to 15 in sequence 14, 33 and 34; listed as Homo sapiens)” was tested. Which “ALP inducing activity of HPDL cells (amelogenins and peptides based on 6 kDa amelogenin)” value [1] did it give?
A: showed the strong bioactivity

Q: With “C-1: 15-residue peptide, position 132-146 of porcine 17 kDa sheath protein (VEGPMVQQQVAPSEK; 15 aa from 132 to 146 in sequence 10; listed as Sus scrofa)” as the molecule, how does the “ALP activity of HPDL cells (porcine sheath proteins and synthetic peptides)” value ([1]; 96 h) read?
A: not so strong; also recorded: enhanced the ALP activity of the HPDL cells

Q: With “SDKPPKPELPVDF (13 aa from 144 to 156 in sequence 36; listed as Homo sapiens) [H-2′]” as the molecule, how does the “ALP inducing activity of HPDL cells (Example 4)” value ([1]; peptides 50 μg/mL, TGF-β1 1 ng/mL, BMP-2 1 μg/mL, 10 nM 1α-25dihydroxy-vitamin D3, 96 h) read?
A: showed the same inductive properties

B1: 17 kDa sheath protein: Porcine 17 kDa sheath protein, N-terminal cleavage product of sheathlin containing 170 amino acids (protein, listed as Sus scrofa)
chain: VPAFPRQPGTPGVASLSLETMRQLGSLQGLNMLSQYSRFGFGKSFNSLWMHGLLPPHSSFQWMRPREHETQQYEYSLPVHPPPLPSQPSLQPQQPGQKPFLQPTVVTSIQNPVQKGVPQPPIYQGHPPLQQVEGPMVQQQVAPSEKPPEAELPGLDFADPQDPSMFPIAR
modifications: porcine sheath protein
notes: Porcine 17 kDa sheath protein, N-terminal cleavage product of sheathlin containing 170 amino acids
Q: B1 was tested. Which “thickness of regenerated cementum” value ([2]; eight weeks following application, measured at 3 points (apical, middle, coronal), beagle dogs) did it give?
A: 31.77±3.78 μm

Q: And the “CR (cementum regeneration) activity” value [2]?
A: induced a thick acellular cementum; also recorded: induced thick acellular cementum near the apical end of the defect, but the CR was scarce near the coronal end; also recorded: induced a smaller area of cementum regeneration; also recorded: exhibited the CR activity

Q: What about the “CR (cementum regeneration) activity” value ([2]; listed as 17 kDa ESP) of the same molecule?
A: stronger cementum regeneration promoting activity

Q: And the “ALP activity of HPDL cells (porcine sheath proteins and synthetic peptides)” value ([1]; 96 h)?
A: enhanced

Q: What about the “ALP activity of HPDL cells (porcine sheath proteins and synthetic peptides)” value ([1]; 96 h, listed as 17 kDa ESP) of the same molecule?
A: weaker than that of TGF-β1

B2: 25 kDa amelogenin: most abundant uncleaved porcine amelogenin polypeptide (protein, UniProt P45561 17-189, looked up)
Amelogenin: MPLPPHPGHPGYINFSYEVLTPLKWYQNMIRHPYTSYGYEPMGGWLHHQIIPVVSQQTPQSHALQPHHHIPMVPAQQPGIPQQPMMPLPGQHSMTPTQHHQPNLPLPAQQPFQPQPVQPQPHQPLQPQSPMHPIQPLLPQPPLPPMFSMQSLLPDLPLEAWPATDKTKREEVD
Q: Which “ALP inducing activity of HPDL cells (amelogenins and peptides based on 6 kDa amelogenin)” value [1] does the source give for B2 here?
A: activity like TGF-β1
